Converted amounts (≈) assume the structure as drawn.

The values that follow come from patent US20010039291A1, “Compositions and methods of treatment for cancer or viral infections” (The Procter & Gamble Company, priority 1995, published 2001).

Experiment [1] has as its system Human influenza virus, strain AT2/Taiwan/1/64. Nature of the experiment: Anti-viral evaluation with human influenza virus in mice. In kind it is in vivo. To be noted: oral lavage, observed 21 days after challenge.
The subject of another experiment is MX1 breast cells. As to the kind of experiment: MTT cell viability test, breast tumor cells. In kind it is cell-based. To be noted: Homo sapiens, 120 h, about 5 day incubation, read-out: EC-50 Result.
Experiment [2] deals with human tumor colony forming units. As to the kind of experiment: In vitro human tumor colony forming units test. In kind it is cell-based. The settings on record: for effectiveness against tumor types / tumors with ≦50% survival: continuous exposure. The method, then:
Solid tumors removed by patients are minced into 2 to 5 mm fragments and immediately placed in McCoy's Medium 5A plus 10% heat inactivated newborn calf serum plus 1% penicillin/streptomycin. Within 4 hours, these solid tumors are mechanically disassociated with scissors, forced through No. 100 stainless steel mesh, through 25 gauge needles, and then washed with McCoy's medium as described above. Ascitic, pleural, pericardial fluids and bone marrow are obtained by standard techniques. The fluid or marrow is placed in sterile containers containing 10 units of preservative free heparin per ml. of malignant fluid or marrow. After centrifugation at 150×g for 10 minutes, the cells are harvested and washed with McCoy's medium plus 10% heat inactivated calf serum. The viability of cell suspensions is determined on a hemocytometer with trypan blue.
Cells to be cloned are suspended in 0.3% agar in enriched CMRL1066 supplemented with 15% heat inactivated horse serum, penicillin (100 units/ml), streptomycin (2 mg/ml), glutamine (2 mM), insulin (3 units/ml), asparagine (0.6 mg/ml), and HEPES buffer (2 mM). For the continuous exposure test each compound is added to the above mixture. Cells are placed in 35 mm petri dishes in a top layer of agar over an underlayer of agar to prevent growth of fibroblasts. Three plates are prepared for each data point. The plates are placed in a 37° C. incubator, and are removed on day 14 for counting of the number of colonies in each plate. The number of colonies (defined as 50 cells) formed in the 3 compound treated plates is compared to the number of colonies formed in the 3 control plates, and the percent colonies surviving at the concentration of compound can be estimated. Three positive control plates are used to determine survival rate. Orthosodium vanadate at 200 μg/ml is used as the positive control. If there is <30% colonies in the positive control when compared to the untreated control, the test is evaluated.

The test system of another experiment is Rhinovirus, type A-1. Nature of the experiment: In vitro screening for Rhinovirus. In kind it is cell-based. The settings on record: cell line WI-38. An excerpt:
The positive control was A-36683 of Abbot Company, (S,S)-1,2-bis(5-methoxy-2-benzimidazolyl)-1,2-ethanediol. […] (See Schleicher et al, Applied Microbiology, 23, No. 1, 113-116 (1972).

The subject of a further experiment is A549 lung tumor cells. Nature of the experiment: MTT cell viability test, lung tumor cells. It counts as cell-based. The settings on record: Homo sapiens, 120 h, about 5 day incubation, read-out: EC-50 Result.
A further experiment deals with HT29 colon tumor cells. As to the kind of experiment: MTT cell viability test, colon tumor cells. In kind it is cell-based. The settings on record: Homo sapiens, HT-29, 120 h, about 5 day incubation, read-out: EC-50 Result. (Tetrazolium dyes change colour on reduction, which living cells bring about.)

Regarding `CCCC1COC(Cn2cncn2)(c2ccc(Cl)cc2Cl)O1` (centres unmarked) [Propiconazole, 1-[2-(2,4-dichlorophenyl)4-propyl-1,3-dioxolan-2-ylmethyl]-1H-1,2,4-triazole], the mice survived in experiment [1] (175 mg/kg dose, saline control no mice survived) came to 40%; in experiment [1] (350 mg/kg dose), 57%. Also, the EC50 with MX1 breast cells is 0.0284 mg/L (≈ 0.083 µM); with A549 lung tumor cells, 0.113 mg/L (≈ 0.33 µM); in the experiment on HT29 colon tumor cells it was 0.0331 mg/L (≈ 0.0967 µM). The effectiveness against tumors result in experiment [2] (0.5 μg/ml, continuous exposure test) is reported as “not effective”. Moreover, in experiment [2] (0.5 μg/ml, single dose experiment), the “tumors responding (effective/tested)” value is listed as 0/1. Further, the “effectiveness against tumor types” value in experiment [2] (5.0 μg/ml) was “effective against breast, head and neck, melanoma and ovarian cancers”; in experiment [2] (50.0 μg/ml), “effective against breast, colon, head and neck, lung (non-small cell), melanoma, ovarian, stomach, and uterine cancers”. In addition, the “tumors with ≦50% survival” value in experiment [2] (5.0 μg/ml) is on record as 5 of 26; in experiment [2] (50.0 μg/ml), 18 of 25. Also, the effective concentration with Rhinovirus, type A-1 came to 32 µg/mL. In addition, the “therapeutic index (ratio of the toxic dose to the efficacious dose)” value in the experiment on Rhinovirus, type A-1 is given as 1-3.
Take `COc1cccc2c1C(=O)c1c(O)c3c(c(O)c1C2=O)C[C@@](O)(C(=O)CO)C[C@@H]3O[C@H]1C[C@H](N)[C@H](O)[C@H](C)O1` [Adriamycin, reference compound]: the EC50 worked out at 0.00078 mg/L (≈ 0.00144 µM) in the experiment on MX1 breast cells, 0.00373 mg/L (≈ 0.00686 µM) in the experiment on A549 lung tumor cells and 0.00639 mg/L (≈ 0.0118 µM) in the experiment on HT29 colon tumor cells.
Turning to `COc1ccc2nc([C@H](O)[C@@H](O)c3nc4ccc(OC)cc4[nH]3)[nH]c2c1` [A-36683, (S,S)-1,2-bis(5-methoxy-2-benzimidazolyl)-1,2-ethanediol, reference compound], the “therapeutic index (ratio of the toxic dose to the efficacious dose)” value in the experiment with Rhinovirus, type A-1 is 1000-3200.
